Assay [1] has as its target T1, HIV-1 protease (Human immunodeficiency virus type 1 group M subtype B, UniProt P04585). Briefly: biochemical. To be noted: Table I; for inhibition at 0.123 µM / inhibition at 0.37 µM / inhibition at 1.1 µM / inhibition at 3.3 µM / inhibition at 10 µM / inhibition at 30 µM: read-out: Protease % Inhib. Here is the method:
(§1) The HIV protease screening assay is based on fluorescently labeled substrate which can be resolved from nonlabeled cleavage product using special beads coated with streptavidin. The substrate is biotinylated at the amino terminal arginine and fluorescently labeled with fluorescein isothiocynate (FITC) at the carboxyl terminal lysine. This assay has been employed to detect novel, nonpeptidic inhibitors of HIV-1 protease. Substrate (20 μM of 0.2 μM), sample (10 μl of desired concentraion), and enzyme (10 μl of 0.1 μM) are added to a 96 well pandex plate. The assay is run in 0.1 M sodium acetate buffer at pH 5.5 in the presence of 1.0 M sodium chloride and 0.05% NP-40 with incubated in the dark for one hour at room temperature. Strepavidin coated polystyrene beads {40 μl of 0.1% (w/v)} are added and the plate is incubated in the dark for an additional half hour. The labeled cleavage product is separated from the unreacted substrate via filtration and is read on the Idexx screen machine. The data are analyzed by appropriate computer algorithms to ascertain percent inhibition values.

Assay [2] concerns the target T1, HIV-1 protease. Briefly: biochemical. The following applies: Table I; read-out: HIV Protease FITC Assay Ki. The procedure:
as §1, with “This assay has been employed to detect novel, nonpeptidic inhibitors of HIV-1 protease.” left out
Determination of Ki values utilizes the same materials and equipment employed for percent inhibition studies. Two-fold serial dilutions are made for a given inhibitor from 2, 3 or 4 starting concentrations with a total of 24, 36 or 48 individual inhibitor concentrations. These dilutions are performed utilizing the BioMek robotics system. The assay consists of 10 μL of 40 nM HIV-1 protease, 10 μL of the various inhibitor concentrations, and 20 μL of 200 μM substrate (40 μL total). The reaction is allowed to proceed for 90 min at room temperature, terminated with 40 μL of avidin beads and processed (supra vide). An inhibitor with a known K; is run in parallel to verify the validity of the assay. The data is processed utilizing a computer program employing a nonlinear least square analysis of the data to generate the Ki values.

pKi: −log10 of the molar value. “And” between values parts separate entries of the source, which are not always exact repeats. Identical values can stand only once.

What is called pKi is −log10 of the Ki, conventionally taken in molar units. Regarding `CC(C)CC(c1cccc(NS(=O)(=O)c2cn(C)cn2)c1)c1c(O)c2c(oc1=O)CCCCCC2` (single isomer, unassigned) [Example 8, (R or S)-N-[3-1-(5,6,7,8,9,10-Hexahydro-4-hydroxy-2-oxo-2H-cycloocta[b]pyran-3-yl)-3-methylbutyl]phenyl]-1-methyl-1H-imidazole-4-sulfonamide], the inhibition at 0.123 µM at HIV-1 protease [1] (Dose 0.123 μM) is 99.2%. Further, the inhibition at 0.37 µM at HIV-1 protease [1] (Dose 0.370 μM) came out at 110%. The inhibition at 1.1 µM at HIV-1 protease [1] (Dose 1.100 μM) worked out at 103%. On HIV-1 protease [1] (Dose 3.300 μM), the inhibition at 3.3 µM came to 110%. In addition, the inhibition at 10 µM on HIV-1 protease [1] (Dose 10.000 μM) stood at 105%. On HIV-1 protease [1] (Dose 30.000 μM), the inhibition at 30 µM turned out to be 102%. The pKi on HIV-1 protease [2] is 9.46.

Turning to `CC(C)CC(c1cccc(NS(=O)(=O)c2cn(C)cn2)c1)c1c(O)c2c(oc1=O)CCCCCC2` (single isomer, unassigned) [Example 9, (R or S)-N-[3-1-(5,6,7,8,9,10-Hexahydro-4-hydroxy-2-oxo-2H-cycloocta[b]pyran-3-yl)-3-methylbutyl]phenyl]-1-methyl-1H-imidazole-4-sulfonamide], the inhibition at 0.123 µM at HIV-1 protease [1] (Dose 0.123 μM) came out at 99.1%. Also, the inhibition at 0.37 µM on HIV-1 protease [1] (Dose 0.370 μM) amounted to 104%. Besides, at HIV-1 protease [1] (Dose 1.100 μM), the inhibition at 1.1 µM is 105%. The inhibition at 3.3 µM on HIV-1 protease [1] (Dose 3.300 μM) worked out at 105%. Besides, the inhibition at 10 µM at HIV-1 protease [1] (Dose 10.000 μM) is 107%. Also, the inhibition at 30 µM on HIV-1 protease [1] (Dose 30.000 μM) was found to be 108%. In addition, the pKi on HIV-1 protease [2] was 9.38.

With `CCCC1(CCC)CC(O)=C(C(CC)c2cccc(NS(=O)(=O)c3cccc4cccnc34)c2)C(=O)O1` (single isomer, unassigned) [Example 52, (R or S)-N-[3-[1-(4-Hydroxy-2-oxo-6,6-dipropyl-5,6-dihydro-2H-pyran-3-yl)-propyl]-phenyl]-8-quinolinesulfonamide], the “PROTEASE % INHIB.” value at HIV-1 protease [1] (Dose 0.123 μM) is on record as 85.08%. At HIV-1 protease [1] (Dose 0.370 μM), the inhibition at 0.37 µM was determined as 87.3%. Besides, the inhibition at 1.1 µM on HIV-1 protease [1] (Dose 1.100 μM) is 92.6%. The inhibition at 3.3 µM at HIV-1 protease [1] (Dose 3.300 μM) came out at 97.4%. In addition, the inhibition at 10 µM at HIV-1 protease [1] (Dose 10.000 μM) stood at 97.2%. The inhibition at 30 µM on HIV-1 protease [1] (Dose 30.000 μM) was 88.9%. Besides, on HIV-1 protease [2], the pKi is 8.85.

Regarding `CCCC1(CCC)CC(O)=C(C(CC)c2cccc(NS(=O)(=O)c3cn(C)cn3)c2)C(=O)O1` (single isomer, unassigned) [Example 53, (R or S)-N-[3-[1-(4-hydroxy-2-oxo-6,6-dipropyl-5,6-dihydro-2H-pyran-3-yl)-propyl]-phenyl]-1-methyl-1H-imidazole-4-sulfonamide], the “PROTEASE % INHIB.” value at HIV-1 protease [1] (Dose 0.123 μM) was determined as 88.61%; at HIV-1 protease [1] (Dose 0.370 μM), 97.74%; at HIV-1 protease [1] (Dose 1.100 μM) it was 97.95%. The inhibition at 3.3 µM at HIV-1 protease [1] (Dose 3.300 μM) was 99.6%. Further, the inhibition at 10 µM on HIV-1 protease [1] (Dose 10.000 μM) was 90.2%. Moreover, the inhibition at 30 µM at HIV-1 protease [1] (Dose 30.000 μM) turned out to be 84.4%. The pKi at HIV-1 protease [2] is 9.05.

`CCCC1(CCC)CC(O)=C(C(CC)c2cccc(NS(=O)(=O)c3cccc4cccnc34)c2)C(=O)O1` (single isomer, unassigned) [Example 54, (S or R)-N-[3-[1-(4-Hydroxy-2-oxo-6,6-dipropyl-5,6-dihydro-2H-pyran-3-yl)-propyl]-phenyl]-8-quinolinesulfonamide]: the “PROTEASE % INHIB.” value on HIV-1 protease [1] (Dose 0.123 μM) is recorded as 46.64%; on HIV-1 protease [1] (Dose 0.370 μM), 72.41%; at HIV-1 protease [1] (Dose 1.100 μM), 87.91%; at HIV-1 protease [1] (Dose 3.300 μM) it was 89.11%; at HIV-1 protease [1] (Dose 10.000 μM), 87.77%; on HIV-1 protease [1] (Dose 30.000 μM) it was 91.99%. Also, the pKi on HIV-1 protease [2] is 7.88.

For `CCCC1(CCC)CC(O)=C(C(CC)c2cccc(NS(=O)(=O)c3cn(C)cn3)c2)C(=O)O1` (single isomer, unassigned) [Example 55, (S or R)-N-[3-[1-(4-hydroxy-2-oxo-6,6-dipropyl-5,6-dihydro-2H-pyran-3-yl)-propyl]-phenyl]-1-methyl-1H-imidazole-4-sulfonamide], the “PROTEASE % INHIB.” value is recorded as under 10% on HIV-1 protease [1] (Dose 0.123 μM); 18.77% at HIV-1 protease [1] (Dose 0.370 μM); 58.27% at HIV-1 protease [1] (Dose 1.100 μM); 86.98% on HIV-1 protease [1] (Dose 3.300 μM); 98.33% on HIV-1 protease [1] (Dose 10.000 μM); 85.88% at HIV-1 protease [1] (Dose 30.000 μM). In addition, the pKi on HIV-1 protease [2] is 8.77.

As to `CCCC1(CCC)CC(O)=C(C(c2cccc(NS(=O)(=O)c3cn(C)cn3)c2)C2CC2)C(=O)O1` (single isomer, unassigned) [Example 56, (R or S)-N-[3-[1-(4-Hydroxy-2-oxo-6,6-dipropyl-5,6-dihydro-2H-pyran-3-yl)-cyclopropylmethyl]-phenyl]-1-methyl-1H-imidazole-4-sulfonamide], the inhibition at 0.123 µM on HIV-1 protease [1] (Dose 0.123 μM) is 104%. The inhibition at 0.37 µM on HIV-1 protease [1] (Dose 0.370 μM) came out at 108%. Moreover, the inhibition at 1.1 µM at HIV-1 protease [1] (Dose 1.100 μM) was found to be 105%. Moreover, the inhibition at 3.3 µM at HIV-1 protease [1] (Dose 3.300 μM) was found to be 105%. For the same molecule, at HIV-1 protease [1] (Dose 10.000 μM), the inhibition at 10 µM came to 115%. The inhibition at 30 µM on HIV-1 protease [1] (Dose 30.000 μM) was 111%. Moreover, the negative logarithm of the Ki (pKi) on HIV-1 protease [2] is 9.64.

On to `CCCC1(CCC)CC(O)=C(C(c2cccc(NS(=O)(=O)c3cn(C)cn3)c2)C2CC2)C(=O)O1` (single isomer, unassigned) [Example 57], for which the “PROTEASE % INHIB.” value came out at 99.07% at HIV-1 protease [1] (Dose 0.123 μM); 105.17% at HIV-1 protease [1] (Dose 0.370 μM); 110.68% on HIV-1 protease [1] (Dose 1.100 μM); 97.8% at HIV-1 protease [1] (Dose 3.300 μM); 104.74% at HIV-1 protease [1] (Dose 10.000 μM); 115.02% at HIV-1 protease [1] (Dose 30.000 μM). The pKi at HIV-1 protease [2] is 9.44.

Take `CC[C@H](Cc1ccccc1)c1cc(O)c(C(c2cccc(NS(=O)(=O)c3cn(C)cn3)c2)C2CC2)c(=O)o1` (single isomer, unassigned) [Example 137, N-(3-(R or S)-{Cyclopropyl-[6-(1-(R)-ethylphenethyl)-4-hydroxy-2-oxo-2H-pyran-3-yl]-methyl}-phenyl)-1-methyl-1H-imidazole-4-sulfonamide]: at HIV-1 protease [1] (Dose 0.123 μM), the inhibition at 0.123 µM worked out at 98.8%. For the same molecule, the inhibition at 0.37 µM at HIV-1 protease [1] (Dose 0.370 μM) amounted to 91.5%. Moreover, the inhibition at 1.1 µM at HIV-1 protease [1] (Dose 1.100 μM) stood at 101%. In addition, at HIV-1 protease [1] (Dose 3.300 μM), the inhibition at 3.3 µM worked out at 110%. Further, the inhibition at 10 µM on HIV-1 protease [1] (Dose 10.000 μM) turned out to be 98.2%. At HIV-1 protease [1] (Dose 30.000 μM), the inhibition at 30 µM is 93.8%. The pKi on HIV-1 protease [2] is 9.28 and 9.15.

As for `CC[C@H](Cc1ccccc1)c1cc(O)c(C(c2cccc(NS(=O)(=O)c3cn(C)cn3)c2)C2CC2)c(=O)o1` (single isomer, unassigned) [Example 138, N-(3-(R or S)-[Cyclopropyl-[6-(l-(R)-ethylphenethyl)-4-hydroxy-2-oxo-2H-pyran-3-yl]-methyl}-phenyl)-1-methyl-1H-imidazole-4-sulfonamide], on HIV-1 protease [1] (Dose 0.123 μM), the inhibition at 0.123 µM turned out to be 101%. Further, at HIV-1 protease [1] (Dose 0.370 μM), the inhibition at 0.37 µM amounted to 95.5%. Further, the inhibition at 1.1 µM at HIV-1 protease [1] (Dose 1.100 μM) came to 101%. Further, the inhibition at 3.3 µM on HIV-1 protease [1] (Dose 3.300 μM) amounted to 99.6%. In addition, the inhibition at 10 µM on HIV-1 protease [1] (Dose 10.000 μM) came to 94.8%. Further, the inhibition at 30 µM at HIV-1 protease [1] (Dose 30.000 μM) stood at 105%. For the same molecule, on HIV-1 protease [2], the pKi was 9.14 and 8.85.

Turning to `CC[C@@H](Cc1ccccc1)c1cc(O)c(C(c2cccc(NS(=O)(=O)c3cn(C)cn3)c2)C2CC2)c(=O)o1` (single isomer, unassigned) [Example 139, N-(3-(R or S)-{Cyclopropyl-[6-(1-(S)-ethylphenethyl)-4-hydroxy-2-oxo-2H-pyran-3-yl]-methyl}-phenyl)-1-methyl-1H-imidazole-4-sulfonamide], at HIV-1 protease [1] (Dose 0.123 μM), the inhibition at 0.123 µM amounted to 98.3%. The inhibition at 0.37 µM on HIV-1 protease [1] (Dose 0.370 μM) turned out to be 101%. Besides, the inhibition at 1.1 µM at HIV-1 protease [1] (Dose 1.100 μM) worked out at 105%. For the same molecule, the inhibition at 3.3 µM on HIV-1 protease [1] (Dose 3.300 μM) was 99.3%. In addition, at HIV-1 protease [1] (Dose 10.000 μM), the inhibition at 10 µM worked out at 99.3%. The inhibition at 30 µM at HIV-1 protease [1] (Dose 30.000 μM) came out at 103%. For the same molecule, the pKi at HIV-1 protease [2] is 8.72.
